Ends that are not written are not given here. * marks the point of attachment. Biotin = O=C1N[C@H]2[C@H](CS[C@H]2CCCCC(=O)*)N1
Legend:
[1] = test system: polyclonal anti-BK antibodies; details: cited from earlier work; for cross-reactivity in the BK EIA as stated by the manufacturer: ref Phoenix Pharmaceuticals
From the text: BK and related peptides are formed locally close to their site of action (autacoids). They are extremely unstable and prone to artefactual formation when blood or tissues are sampled (for instance, following contact of blood with glass). Therefore, measuring kinins in venous blood is not really informative, contrasting with many useful peptide hormone dosages applied in endocrinology. A further challenge in concentration determination is that the BK sequence is embedded in that of precursor kininogens, with necessary separation if an antibody-based detection system is considered. Blais e ... || Figure 2 Cross-reactivity of the BK EIA with selected kinin sequences. […] Reproduce ...

[2] = target: ACE; set-up: method as in 2 sources, one per row (each row's own in cited_ref): ref 35 = [35]; PMID 18201802; doi:10.1016/j.peptides.2007.12.004; 35. Morissette G. Couture J.P. Désormeaux A. Adam A. Marceau F. Lack of direct interaction between enalaprilat and the kinin B 1 receptors Peptides 2008 29 606 612 10.1016/j.peptides.2007.12.004 18201 ||| ref 36 = [36]; PMID 20452384; doi:10.1016/j.peptides.2010.04.027; 36. Koumbadinga G.A. Bawolak M.T. Marceau E. Adam A. Gera L. Marceau F. A ligand-based approach to investigate the expression and function of angiotensin converting enzyme in intact human umbilical ve; details: cited from earlier work
From the text: Primary cultures of human umbilical vein endothelial cells (HUVECs) are a standard model for which significant information is available. These cells express at their surface a high number of ACE molecule, as judged from the saturable binding of [^3 ...

[3] = test system: human B1 receptor; details: cited from earlier work
From the text: The present paper reviews recent literature, contains some original results, and aims to illustrate the role of the analytical biochemistry of BK-related kinins in the understanding of angioedema (AE) mediated by kinins. The kallikrein –kinin system is made of many molecular participants present or secreted in blood plasma or present at the vascular endothelial surface (Figure 1). There are two different precursors of kinins, low and high molecular weight kininogens (LK, HK; abbreviations are defined in Table 1). Those proteins are encoded by alternative splicing of a single gene ...

[4] = Degradation of BK by intact adherent HUVECs (Phoenix Pharmaceuticals BK EIA)
Method: Samples were incubated at 37 °C under agitation for the indicated time periods before extraction and EIA determination of BK. The number of replicated from different healthy donors is indicated by “n”. […] Reproduced from.
(§1) ACE activity in serum or blood plasma corresponds, in healthy individuals, to a form of the protein shed from the vascular endothelial cells in an apparently regulated manner. ACE, membrane arginine carboxypeptidase (carboxypeptidase M), aminopeptidase P and other potential kininases are expressed at the surface of vascular endothelial cells. Primary cultures of human umbilical vein endothelial cells (HUVECs) are a standard model for which significant information is available.

[5] = BK added ex vivo to plasma of healthy subjects who took two daily doses of enalapril maleate; cited from earlier work
[6] = cited from earlier work
Method: Samples were incubated at 37 °C under agitation for the indicated time periods before extraction and EIA determination of BK. The number of replicated from different healthy donors is indicated by “n”. […] Reproduced from. (B) Catabolism of BK ... || One stored plasma sample that was received in our laboratory was partly clotted and excluded from our previous studies. […] Secondly, the par ...

[7] = BK 10 ng/mL, adherent HUVECs at 37 °C without serum, radioimmunoassay; cited from earlier work
From the text: as §1, with “available. These cells express at their surface a high number of ACE molecule, as judged from the saturable binding of [^3 ...” for “available.”

[8] = test system: polyclonal anti-BK antibodies; test: Cross-reactivity of the BK EIA (Phoenix Pharmaceuticals) with kinin sequences; type: binding; details: Figure 2 (reproduced in part from ref 12)
From the text: BK and related peptides are formed locally close to their site of action (autacoids). They are extremely unstable and prone to artefactual formation when blood or tissues are sampled (for instance, following contact of blood with glass). Therefore, measuring kinins in venous blood is not really informative, contrasting with many useful peptide hormone dosages applied in endocrinology. A further challenge in concentration determination is that the BK sequence is embedded in that of precursor kininogens, with necessary separation if an antibody-based detection system is considered. Blais et al. have reviewed these pitfalls and discussed extraction procedures and recovery in the context of the currently applied immunoassays. Professor A. Adam and co-workers developed separate competitive chemiluminescence enzyme immunoassays (EIAs) for BK and des-Arg^9-BK based on digoxygenin-conjugated peptides. Now several commercially available kits are being used, such as that from Phoenix Pharmaceuticals for BK (96-well plate format), and these have the advantage of world-wide reproducibility. The sensitivity of EIAs is excellent. […]
(Figure 2). […] One way out is to couple the EIA quantification with chromatographic separation of kinins, such as HPLC [29]. […]

[9] = test system: B2 receptor; details: cited from earlier work
From the text: (§2) (Figure 2). Thus, the EIA signal may be contaminated with the inert metabolite generated by aminopeptidase P, a significant peptidase that inactivates BK [17]. One way out is to couple the EIA quantification with chromatographic separation of kinins, such as HPLC [29].

[10] = test system: B1 receptor; details: cited from earlier work
From the text: as §2

Q: Which “cross-reactivity in the BK EIA as stated by the manufacturer” value [1] does the source give for “biotinyl-BK (Biotin-RPPGFSPFR; UniProt P01042 381-389, looked up) [biotin-labelled BK tracer]” here?
A: fully cross-reacts

Q: With `C[C@H](N[C@@H](CCc1ccccc1)C(=O)O)C(=O)N1CCC[C@H]1C(=O)O` [[^3H]enalaprilat, enalaprilat] as the molecule, how does the Kd ([2]; saturable binding to intact HUVECs) read?
A: 0.23 nM

Q: What does the source list for “des-Arg^9-BK (RPPGFSPF; Bradykinin; UniProt P01042 381-388, looked up, fragment) [BK metabolite produced by arginine carboxypeptidases (kininase I)]”?
A: affinity for the human form of the B1 receptor [3]: very weak affinity; cross-reactivity in the BK EIA as stated by the manufacturer [1]: not

Q: For RPPGFSPFR [BK, bradykinin], which “stability in wells without cells (nude plastic)” value [4] is on record?
A: stable

Q: And the half-life at 10 nM ([4]; human, pH 7.4)?
A: 12.3 min

Q: What about the “increase of BK t1/2 relative to the pre-treatment value” [5] of the same molecule?
A: ~ 5 fold

Q: And the “time in which BK was completely cleared” value [6]?
A: 5 min

Q: What about the “half-life (first order decay)” value ([6]; human) of the same molecule?
A: 7.1 min

Q: And the t1/2 ([6]; human)?
A: 0.567 min

Q: What about the half-life [7] of the same molecule?
A: about 50 min

Q: Which “cross-reactivity in the BK EIA as stated by the manufacturer” value [1] does the source give for lysyl-bradykinin [Lys-BK] here?
A: fully cross-reacts

Q: What about the “displacement of [3H]enalaprilat binding” value ([2]; HUVECs) of the same molecule?
A: displaced

Q: What does the source list for D-Arg-BK-Arg-Arg?
A: cross-reactivity in the BK EIA vs. BK [8]: loses much affinity; cross-reactivity in the BK EIA vs. BK ([8]; listed as Arg-BK-Arg-Arg): partial reactivity

Q: What does the source list for “BK1–7: BK fragment produced by ACE (RPPGFSP; Bradykinin; UniProt P01042 381-387, looked up, fragment)”?
A: activity on B2 receptors [9]: inactive; activity on B1 receptors [10]: inactive

Q: What does the source list for Lys-des-Arg^9-BK?
A: affinity for the human form of the B1 receptor [3]: subnanomolar affinity; cross-reactivity in the BK EIA ([1]; Phoenix Pharmaceuticals BK EIA): do not cross react at all

Q: Which results are given for “BK1–5: BK fragment produced by two cycles of ACE activity, more stable than most kinins (RPPGF; Bradykinin; UniProt P01042 381-385, looked up, fragment)”?
A: activity on B2 receptors [9]: inactive; activity on B1 receptors [10]: inactive

Reference: PMC7559923, “In Vitro Modeling of Bradykinin-Mediated Angioedema States” (Pharmaceuticals, 2020)
